Data published in patent US6579849B2, “Antibiotic peptides from bovine milk” (HaemoPep Pharma GmbH, priority 1998, dated 2003).
Like-named read-outs stand apart in the source and are kept apart here.

Assays:
[1] = test system: S. carnosus; assay: Preincubation experiment (determination of CFU); assay type: cell-based, Staphylococcus carnosus; details: incubated at 37° C. for 120 min, interpolated from FIG. 3
Experimental: (§1) Exponentially grown bacteria with a density corresponding to an A600 of 0.4 to 0.6, were initially diluted 1:10^5 in 10 mM phosphate buffer (Na—P, pH 7.2) or phosphate buffered saline (PBS, pH 7.4) and incubated at 37° C. for 120 min in Na—P or PBS supplemented with different concentrations of peptides. After this period the reaction mixtures were diluted 1:10 and 1:100 in the same buffer and plated on LB-Agar to determine the colony forming units (CFU). The plating were done in triplets. The colonies were counted with a colony counter (Darkfield, Quebec, Canada).
(§2) An example for the depletion of viable bacteria gives FIG. 2 showing that a time dependent killing of the bacteria during incubation occurs. The interpolation of the date gives the following order of sensitivity of the used strains B. subtilis>S. carnosus=S. epidermidis>Rhodotorula >>E. coli>Enterococcus faecium ATCC 35667. The concentration necessary to reduce the colony forming units (CFU) to 50% of the initial CFU ranges from 180 μg/ml (E. faecium) over 20 μg/ml (E. coli, S. carnosus, R. rubra) to 1 μg/ml for B. subtilis indicating a potent inhibitory effect of the used peptide.

[2] = Storage of lyophilized peptide; assay type: physicochemical; details: room temperature
[3] = test system: B. subtilis; assay: Preincubation experiment (determination of CFU); assay type: cell-based; details: incubated at 37° C. for 120 min, interpolated from FIG. 3
Experimental: as §1, §2

[4] = test system: E. coli; assay: Preincubation experiment (determination of CFU); assay type: cell-based; details: incubated at 37° C. for 120 min, interpolated from FIG. 3
Experimental: as §1, §2

[5] = test system: Enterococcus faecium ATCC 35667; assay: Preincubation experiment (determination of CFU); assay type: cell-based; details: E. faecium; incubated at 37° C. for 120 min; interpolated from FIG. 3
Experimental: as §1, §2

[6] = test system: E. coli transformed with the plasmid pUC18; assay: Membrane permeabilization, release of beta-galactosidase and beta-lactamase; assay type: cell-based; details: 37° C. for 30 min, FIG. 5
Experimental: The beta-galactosidase indicated the degree of the permeabilization of the inner membrane (IM) of E. coli. The permeabilization of the outer membrane was monitored by determination of released beta-Lactamase (plasmid coded) mainly present in the periplasmatic space.
To measure the relative release of beta-galactosidase a suspension of E. coli grown overnight in LB medium was washed once in phosphate buffer (10 mM, pH 7.0). Afterwards the bacteria were resuspended to a final density of app. 0.5 A600. Peptide fractions were lyophilized in 1.5 ml tubes in a speed vac concentrator and solved in 40 μl phosphate buffer. To the peptide solution a volume of 200 μl bacterial suspension was added and the incubation was performed at 37° C. for 30 min. As a control, to determine the maximum of the enzyme release, bacteria were disrupted by ultrasonic treatment (about 100 joules in 10 sec). […] The absorbance of the samples at 405 nm was measured and the increase of each absorbance was normalized to the sonified sample assuming enzymatic release of 100%.
To detect the release of beta-lactamase the supernatants of E. coli were prepared as described for the beta-galactosi-dase. […] The samples were incubated for 45 min at 37° C. in the dark and the absorbance was measured at a wavelength of 700 nm and the normalization was done with the results gained with sonified samples.

[7] = test system: R. rubra; assay: Preincubation experiment (determination of CFU); assay type: cell-based, Rhodotorula rubra; details: incubated at 37° C. for 120 min, interpolated from FIG. 3
Experimental: as §1, §2

[8] = test system: S. carnosus; assay type: cell-based, Staphylococcus carnosus
Experimental: To determine the minimal inhibitory concentration of casocidin-I under the influence of the medium strength or in the presence of bivalent cations, a dilution assay was performed in 96-well cell culture clusters. After diluting the peptide in 50 μl medium (tryptic soy broth, Sigma, Germany) with adjusted pH 7.2, ion concentrations or medium strength on one plate, the same amount of medium with appr. 2-4*10^3 bacteria in 50 μl medium were added to the diluted samples. The incubations were done overnight at 37° C. The minimal inhibitory concentration was manually read using a microscope.

[9] = test system: bacteria; assay: Antibacterial / antimicrobial effect of comparison peptides; assay type: cell-based

Compound	concentration necessary to reduce the colony forming units (CFU) to 50% of the initial CFU [1]	potency when lyophilized, storage [2]	concentration necessary to reduce the colony forming units (CFU) to 50% of the initial CFU [3]	concentration necessary to reduce the colony forming units (CFU) to 50% of the initial CFU [4]	concentration necessary to reduce the colony forming units (CFU) to 50% of the initial CFU [5]	mechanism of action: release of intracellular enzymes beta-galactosidase and beta-lactamase [6]	concentration necessary to reduce the colony forming units (CFU) to 50% of the initial CFU [7]	MIC ([8]; bivalent cation 2.5 mM Ca)	MIC ([8]; bivalent cation 2.5 mM Mn)	MIC ([8]; medium strength 1 (tryptic soy broth, pH 7.2))	antibacterial / antimicrobial effect [9]
CC[C@H](C)[C@H](NC(=O)[C@H](CCCCN)NC(=O)[C@H](CCCCN)NC(=O)[C@H](CC(C)C)NC(=O)[C@H](Cc1ccccc1)NC(=O)[C@H](CC(N)=O)NC(=O)[C@H](CC(C)C)NC(=O)[C@H](CCCNC(=N)N)NC(=O)[C@H](CC(N)=O)NC(=O)[C@H](CCCCN)NC(=O)[C@H](CCC(=O)O)NC(=O)[C@H](CCC(=O)O)NC(=O)[C@H](CCC(=O)O)NC(=O)[C@@H](NC(=O)[C@H](CC(C)C)NC(=O)[C@H](CCCCN)NC(=O)[C@@H](NC(=O)[C@@H](N)CCCCN)[C@@H](C)O)[C@@H](C)O)C(=O)N[C@@H](CO)C(=O)N[C@@H](CCC(N)=O)C(=O)N[C@@H](CCCNC(=N)N)C(=O)N[C@@H](Cc1ccc(O)cc1)C(=O)N[C@@H](CCC(N)=O)C(=O)N[C@@H](CCCCN)C(=O)N[C@@H](Cc1ccccc1)C(=O)N[C@@H](C)C(=O)N[C@@H](CC(C)C)C(=O)N1CCC[C@H]1C(=O)N[C@@H](CCC(N)=O)C(=O)N[C@@H](Cc1ccc(O)cc1)C(=O)N[C@@H](CC(C)C)C(=O)N[C@@H](CCCCN)C(=O)N[C@H](C(=O)N[C@H](C(=O)N[C@@H](Cc1ccc(O)cc1)C(=O)N[C@@H](CCC(N)=O)C(=O)N[C@@H](Cc1c[nH]cn1)C(=O)N[C@@H](CCC(N)=O)C(=O)N[C@@H](CCCCN)C(=O)O)C(C)C)[C@@H](C)O [casocidin-I]	20 µg/mL	keeps its potency when lyophilized	1 µg/mL	20 µg/mL	180 µg/mL	membrane permeabilizing effect	20 µg/mL	no	no	no	–
QRYQ	–	–	–	–	–	–	–	–	–	–	not sufficient to gain antimicrobial properties
